Data as given in patent publication US20240417405A1, “Substituted Spiro Derivatives” (Janssen Pharmaceutica NV, priority 2021, published 2024).

Assays:
KO-52 cells = assay: Proliferation assay, spheroid-like growth, KO-52 (MLL wildtype control cell line); type: cell-based, human; conditions: Homo sapiens, 192 h, KO-52 control cells, 8 days, confluence as measure of spheroid size; read-out: spheroid assay_OneTime KO-52 IC50
Description: The anti-proliferative effect of menin/MLL protein/protein interaction inhibitor test compounds was assessed in human leukemia cell lines. The cell line MOLM14 harbors a MLL translocation and expresses the MLL fusion proteins MLL-AF9, respectively, as well as the wildtype protein from the second allele. […] KO-52 was used as a control cell line containing two MLL (KMT2A) wildtype alleles in order to exclude compounds that display general cytotoxic effects.
MOLM14 cells were cultured in RPMI-1640 (Sigma Aldrich) supplemented with 10% heat-inactivated fetal bovine serum (HyClone), 2 mM L-glutamine (Sigma Aldrich) and 50 μg/ml gentamycin (Gibco). KO-52 cell lines were propagated in alpha-MEM (Sigma Aldrich) supplemented with 20% heat-inactivated fetal bovine serum (HyClone), 2 mM L-glutamine (Sigma Aldrich) and 50 μg/ml gentamycin (Gibco).
In order to assess the anti-proliferative effects, 200 MOLM14 cells, or 300 KO-52 cells were seeded in 200 μl media per well in 96-well round bottom, ultra-low attachment plates (Costar, catalogue number 7007). Cell seeding numbers were chosen based on growth curves to ensure linear growth throughout the experiment. Test compounds were added at different concentrations and the DMSO content was normalized to 0.3%. Cells were incubated for 8 days at 37° C. and 5% CO2. Spheroid like growth was measured in real-time by live-cell imaging (IncuCyteZOOM, Essenbio, 4× objective) acquiring images at day 8. Confluence (%) as a measure of spheroid size was determined using an integrated analysis tool.
In order to determine the effect of the test compounds over time, the confluence in each well as a measure of spheroid size, was calculated. Confluence of the highest dose of a reference compound was used as baseline for the LC (Low control) and the confluence of DMSO treated cells was used as 0% cytotoxicity (High Control, HC).
Absolute IC50 values were calculated as percent change in confluence as follows:
LC=Low Control: cells treated with e.g. 1 μM of the cytotoxic agent staurosporin, or e.g. cells treated with a high concentration of an alternative reference compound
GraphPad Prism (version 7.00) was used to calculate the IC50. Dose-response equation was used for the plot of % Effect vs Log 10 compound concentration with a variable slope and fixing the maximum to 100% and the minimum to 0%.

[1] = molecular target: T1, menin/MLL (terbium chelate-labeled menin, FITC-MBM1 peptide) (Homo sapiens, UniProt O00255, T541A); assay: Menin/MLL homogenous time-resolved fluorescence (HTRF) assay; type: binding; conditions: 30 min incubation
T1 construct: Menin (a.a 1-610-6xhis tag)
T1 sequence (O00255 with tags, fused parts or gaps T541A): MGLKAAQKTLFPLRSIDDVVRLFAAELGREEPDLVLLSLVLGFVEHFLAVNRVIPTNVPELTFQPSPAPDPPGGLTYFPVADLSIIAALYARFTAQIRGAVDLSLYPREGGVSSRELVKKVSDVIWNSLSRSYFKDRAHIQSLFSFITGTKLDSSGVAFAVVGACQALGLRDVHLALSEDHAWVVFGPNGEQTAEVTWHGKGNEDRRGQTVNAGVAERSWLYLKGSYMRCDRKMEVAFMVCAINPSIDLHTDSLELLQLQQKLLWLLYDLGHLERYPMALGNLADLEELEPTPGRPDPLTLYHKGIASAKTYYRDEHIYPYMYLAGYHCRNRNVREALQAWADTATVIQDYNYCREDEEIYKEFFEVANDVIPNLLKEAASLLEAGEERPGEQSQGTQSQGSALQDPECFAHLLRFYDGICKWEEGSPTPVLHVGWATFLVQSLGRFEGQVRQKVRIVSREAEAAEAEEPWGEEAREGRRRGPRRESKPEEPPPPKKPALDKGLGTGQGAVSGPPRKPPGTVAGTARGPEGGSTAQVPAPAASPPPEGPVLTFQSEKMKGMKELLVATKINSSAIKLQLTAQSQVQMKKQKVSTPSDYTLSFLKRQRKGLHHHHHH
Procedure, shortened: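 Terbium-labeled menin (aa 1-610, His-tagged; 200 pM) preincubated 30 min with compound, then 75 nM FITC-MBM1 peptide added for 15 min at ambient temperature in pH 7.5 Tris buffer, 0.5% DMSO. HTRF ratio 520/490 nm converted to % inhibition. IC50 came from an 11-point four-fold titration from 10 μM, floor 0.1 nM.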

MOLM14 cells = assay: Proliferation assay, spheroid-like growth, MOLM14 (MLL-AF9 rearranged); type: cell-based, human; conditions: Homo sapiens, MOLM-14, 192 h, 8 days, confluence as measure of spheroid size, read-out: spheroid assay_OneTime MOLM14 IC50
Procedure, shortened: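 Cells seeded in ultra-low attachment round-bottom wells (200 MOLM14 or 300 KO-52 per well) with compound at several concentrations, DMSO 0.3%, grown 8 days at 37° C, 5% CO2. Spheroid size taken as confluence from day-8 live-cell images; IC50 from variable-slope fit, DMSO as 0% and high-dose reference compound as 100% effect.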

SMILES | IC50 [1] [nM] | IC50 (MOLM14 cells) [nM] | IC50 (KO-52 cells) [µM]
CC(C)[C@H](C1CCN(CC2COC2)CC1)N1CC2(CCN(c3ncnnc3Oc3ccc(F)cc3-c3cncnc3C3CC3)C2)C1 (single isomer, unassigned) [Compound 5] | 0.2 | 120 | 9.31
CC(C)C([C@H]1C[C@H](N(C)C)C1)N1CC2(CCN(c3ncnnc3Oc3ccc(F)cc3-c3cncnc3C3CC3)C2)C1 (single isomer, unassigned) [Compound 8] | 0.3 | 52 | 10.2
CC(C)[C@H]([C@H]1C[C@@H](N2CCC(O)C(F)C2)C1)N1CC2(CCN(c3ncnnc3Oc3ccc(F)cc3-c3cncnc3C3CC3)C2)C1 (single isomer, unassigned) [Compound 10] | 0.4 | 17 | 5.09
CC(C)[C@H]([C@H]1C[C@@H](N2CCC(O)CC2)C1)N1CC2(CCN(c3ncnnc3Oc3ccc(F)cc3-c3cncnc3C3CC3)C2)C1 (single isomer, unassigned) [Compound 22] | 0.1 | 3 | 10.8
CC(C)[C@@H]([C@H]1C[C@@H](N2CCC(S(C)(=O)=O)CC2)C1)N1CC2(CCN(c3ncnnc3Oc3ccc(F)cc3-c3cccnc3C3CC3)C2)C1 (single isomer, unassigned) [Compound 23] | 0.3 | 9 | 1.06
CC(C)[C@H]([C@H]1C[C@@H](N2CCC(S(C)(=O)=O)CC2)C1)N1CC2(CCN(c3ncnnc3Oc3ccc(F)cc3-c3ncccc3C3CC3)C2)C1 (single isomer, unassigned) [Compound 25] | 0.1 | 85 | 5.57
CC(C)[C@@H]([C@H]1C[C@@H](N2CCC(S(C)(=O)=O)CC2)C1)N1CC2(CCN(c3ncnnc3Oc3ccc(F)cc3-c3ncccc3C3CC3)C2)C1 (single isomer, unassigned) [Compound 26] | 6.2 | > 940 | > 15
CC(C)[C@H]([C@H]1C[C@@H](NC(=O)C2CC2)C1)N1CC2(CCN(c3ncnnc3Oc3ccc(F)cc3-c3ncccc3C3CC3)C2)C1 (single isomer, unassigned) [Compound 27] | 0.1 | 36 | 5.56
CC(C)[C@@H](C1CCN(CC2COC2)CC1)N1CC2(CCN(c3ncnnc3Oc3ccc(F)cc3-c3cncnc3C3CC3)C2)C1 (single isomer, unassigned) [Compound 29] | 1.8 | 220 | > 15
CC(C)[C@H]([C@H]1C[C@@H](N2CCC(F)C(O)C2)C1)N1CC2(CCN(c3ncnnc3Oc3ccc(F)cc3-c3cncnc3C3CC3)C2)C1 (single isomer, unassigned) [Compound 30] | 0.3 | 29 | 2.58
CC(C)[C@H]([C@H]1C[C@H](N2CCC(F)C(O)C2)C1)N1CC2(CCN(c3ncnnc3Oc3ccc(F)cc3-c3cncnc3C3CC3)C2)C1 (single isomer, unassigned) [Compound 31] | 0.3 | 7 | 2.41
CC(C)[C@H]([C@H]1C[C@H](N2CCC(O)C(F)C2)C1)N1CC2(CCN(c3ncnnc3Oc3ccc(F)cc3-c3cncnc3C3CC3)C2)C1 (single isomer, unassigned) [Compound 33] | 0.3 | 7 | 2.49
CC(=O)N1CCN([C@H]2C[C@@H]([C@@H](C(C)C)N3CC4(CCN(c5ncnnc5Oc5ccc(F)cc5-c5cncnc5C5CC5)C4)C3)C2)CC1 (single isomer, unassigned) [Compound 34] | 0.5 | 36 | 5.14
CC(=O)N1CCN([C@H]2C[C@H]([C@@H](C(C)C)N3CC4(CCN(c5ncnnc5Oc5ccc(F)cc5-c5cncnc5C5CC5)C4)C3)C2)CC1 (single isomer, unassigned) [Compound 35] | 1.3 | 340 | > 15
CC(C)[C@H]([C@H]1C[C@@H](N2CCN(C(=O)N(C)C)CC2)C1)N1CC2(CCN(c3ncnnc3Oc3ccc(F)cc3-c3cncnc3C3CC3)C2)C1 (single isomer, unassigned) [Compound 36] | 0.2 | 10 | 3.05
COCCN(C)[C@H]1C[C@@H]([C@@H](C(C)C)N2CC3(CCN(c4ncnnc4Oc4ccc(F)cc4-c4cncnc4C4CC4)C3)C2)C1 (single isomer, unassigned) [Compound 38] | 0.2 | 6 | > 15
CC(C)[C@H]([C@H]1C[C@@H](NC2CC2)C1)N1CC2(CCN(c3ncnnc3Oc3ccc(F)cc3-c3cncnc3C3CC3)C2)C1 (single isomer, unassigned) [Compound 39] | 0.1 | 7 | 1.48

The next lines start with results.

IC50 [1] [nM] | IC50 (MOLM14 cells) [nM] | SMILES | IC50 (KO-52 cells) [µM]
0.1 | 4 | CC(C)C([C@H]1C[C@@H](N(C)C)C1)N1CC2(CCN(c3ncnnc3Oc3ccc(F)cc3-c3cncnc3C3CC3)C2)C1 (single isomer, unassigned) [Compound 7] | 5.04
0.1 | 21 | CC(C)[C@H]([C@H]1C[C@@H](N2CCC(S(C)(=O)=O)CC2)C1)N1CC2(CCN(c3ncnnc3Oc3ccc(F)cc3-c3cncnc3C3CC3)C2)C1 (single isomer, unassigned) [Compound 9] | 7.16
0.1 | 2 | CC(C)[C@H]([C@H]1C[C@@H](N2C[C@H]3COC[C@H]3C2)C1)N1CC2(CCN(c3ncnnc3Oc3ccc(F)cc3-c3cncnc3C3CC3)C2)C1 (single isomer, unassigned) [Compound 14] | 2.11
0.1 | 4 | COC1CCN([C@H]2C[C@@H](C(C(C)C)N3CC4(CCN(c5ncnnc5Oc5ccc(F)cc5-c5cncnc5C5CC5)C4)C3)C2)CC1 (single isomer, unassigned) [Compound 16] | 1.88
0.1 | 2 | CC(C)[C@H]([C@H]1C[C@@H](N2CCCC2)C1)N1CC2(CCN(c3ncnnc3Oc3ccc(F)cc3-c3cncnc3C3CC3)C2)C1 (single isomer, unassigned) [Compound 18] | 0.81
0.1 | 5 | CC(C)C([C@H]1C[C@@H](N2CC3(COC3)C2)C1)N1CC2(CCN(c3ncnnc3Oc3ccc(F)cc3-c3cncnc3C3CC3)C2)C1 (single isomer, unassigned) [Compound 20] | 4.3
0.1 | 52 | CC(C)C([C@H]1C[C@H](N2CC3(COC3)C2)C1)N1CC2(CCN(c3ncnnc3Oc3ccc(F)cc3-c3cncnc3C3CC3)C2)C1 (single isomer, unassigned) [Compound 21] | 4.61
